Data published in patent US11807627B2, “Morphic forms of complement factor D inhibitors” (priority 2018, dated 2023).
Converted amounts (≈) assume the structure as drawn.

How the values were obtained:
Format in all cases: physicochemical
[1] = pH experiments and SIF/SGF/FaSSIF/FeSSIF solubility (Examples 3 and 4)
[2] = Polymorph study: anti-solvent addition
Method: Anti-solvent additions were completed on saturated solutions of Compound 3 produced from temperature cycling experiments. Precipitation of solids was observed (before anti-solvent additions were completed) from selected solvent systems when storage under ambient conditions. Precipitated solids were analyzed by XRPD and re-dissolved using gentle heating and addition of minimal solvent. An appropriate anti-solvent was added to each saturated solution in 50μL aliquots until precipitation was observed or a total of 1 mL anti-solvent had been added. Samples where solids were precipitated were isolated using centrifuge filtration and analyzed by XRPD. […] Samples where solids had precipitated were isolated using centrifuge filtration and analyzed by XRPD (Table 20A and Table 20B).

[3] = Enabling form study: solubility from RT slurry in solvents (Table 2); conditions: organic solvent or mixture, thermodynamic from solid
Method: A solution of Compound 3 and solvent/solvent system of interest was prepared. Solids persisted in solution. The samples were placed onto a stir plate at ambient (RT) or elevated (ET) temperatures. The samples were monitored to ensure that solids persisted during the slurry process. The solids were collected via vacuum filtration and dried under ambient conditions.
An enabling form study was also carried out (Table 2).

[4] = Polymorph study: crash cooling
Method: Saturated solutions of Compound 3 produced from temperature cycling experiments were placed into a fridge to crash cool to 4° C. After about 4 days, observations were made and solids produced were isolated using centrifuge filtration and analyzed by XRPD. Where no solids were recovered, solutions were placed into a freezer (−20° C.) for 14 days. Any solids produced were isolated by centrifuge filtration and analyzed by XRPD (Table 19).

[5] = 50% 2-Propanol / 50% Heptane (% v/v)
[6] = 70% 2-Propanol / 30% Heptane (% v/v)
[7] = 70% 2-Propanol / 30% Water (% v/v) aw = 0.8
[8] = 95% 2-Propanol / 5% Heptane (% v/v)
[9] = 95% Heptane / 5% 2-Propanol (% v/v)
[10] = 95% Methanol / 5% Water (% v/v) calc. aw = 0.2

CC(=O)c1nn(CC(=O)N2[C@H](C(=O)Nc3nc(Br)ccc3C)C[C@@]3(C)C[C@@H]23)c2ccc(-c3cnc(C)nc3)cc12 [Compound 3, (1R,3S,5R)-2-(2-(3-acetyl-5-(2-methylpyrimidin-5-yl)-1H-indazol-1-yl)acetyl)-N-(6-bromo-3-methylpyridin-2-yl)-5-methyl-2-azabicyclo[3.1.0]hexane-3-carboxamide]
pH Experiments (solubility) ([1]; 1.2 pH): 389.37 μg/mL
pH Experiments: stability in the medium ([1]; 1.2 pH): degrades
pH Experiments (solubility) ([1]; 4.0 pH): 56.68 μg/mL
pH Experiments (solubility) ([1]; 6.0 pH): 54.60 μg/mL
pH Experiments (solubility) ([1]; 7.4 pH): 53.41 μg/mL
solubility ([1]; FaSSIF, read-out: FaSSIF solubility): 75.4 µg/mL (≈ 0.125 mM)
solubility ([1]; FeSSIF, read-out: FeSSIF solubility): 153 µg/mL (≈ 0.254 mM)
pH Experiments (solubility) ([1]; SGF pH = 1.6): 96.35 μg/mL
pH Experiments (solubility) ([1]; SIF pH = 6.5): 80.77 μg/mL
Crystallization technique: Anti-solvent Additions ([2]; 1-Butanol, *solids that precipitated under ambient conditions, WC = weakly crystalline): Form A (WC) *
XRPD analysis after re- dissolution and storage at 4° C. for ca. 48 hours ([2]; 1-Butanol, WC = weakly crystalline): WC Form A
XRPD analysis after re- dissolution and storage at 4° C. for ca. 48 hours ([2]; 2-Propanol): Form A
Crystallization technique: Anti-solvent Additions ([2]; 2-Propanol, *solids that precipitated under ambient conditions): Form A*
Crystallization technique: Anti-solvent Additions ([2]; 40% Ethanol / 60% Water (% v/v) calc. aw = 0.7, *solids that precipitated under ambient conditions): Mixture L + M*
Observation after re-dissolution and anti-solvent addition [2, 5]: Clear solution
Observations after storage in the fridge for ca. 48 hours [2, 5]: Clear solution
Crystallization technique: Anti-solvent Additions ([2]; 50% 2-Propanol / 50% Heptane (% v/v), *solids that precipitated under ambient conditions, WC = weakly crystalline): Form A (WC) *
Crystallization technique: Anti-solvent Additions ([2]; 50% Ethanol / 50% Heptane (% v/v), *solids that precipitated under ambient conditions): Form A*
XRPD analysis after re- dissolution and storage at 4° C. for ca. 48 hours ([2]; 50% Ethanol:50% Heptane (% v/v)): Form A
Observation after re-dissolution and anti-solvent addition [2, 6]: Clear solution
Observations after storage in the fridge for ca. 48 hours [2, 6]: Clear solution
Observations after storage in the fridge for ca. 48 hours ([2]; 70% 2-Propanol / 30% Heptane (% v/v) re-prepared sample): Clear solution
Crystallization technique: Anti-solvent Additions ([2]; 70% 2-Propanol / 30% Heptane (% v/v), *solids that precipitated under ambient conditions): Mixture L + M*
Crystallization technique: Anti-solvent Additions [2, 7]: Clear solution
Observations after storage in the fridge for ca. 48 hours [2, 7]: Clear solution
XRPD analysis after re- dissolution and storage at 4° C. for ca. 48 hours [2, 8]: Form A
Crystallization technique: Anti-solvent Additions ([2]; 95% 2-Propanol / 5% Heptane (% v/v), *solids that precipitated under ambient conditions): Form A*
Observations after storage in the fridge for ca. 48 hours [2, 9]: Clear solution
Crystallization technique: Anti-solvent Additions [2, 10]: Clear solution
Observations after storage in the fridge for ca. 48 hours ([2]; 95% Methanol:5% Water (% v/v) calc. aw = 0.2): Clear solution
XRPD analysis after re- dissolution and storage at 4° C. for ca. 48 hours ([2]; Acetone): Form A
Crystallization technique: Anti-solvent Additions ([2]; Acetone, *solids that precipitated under ambient conditions): Form A*
Observations after storage in the fridge for ca. 48 hours ([2]; Acetonitrile): Clear solution
XRPD analysis after re- dissolution and storage at 4° C. for ca. 48 hours ([2]; Ethanol): Form A
Crystallization technique: Anti-solvent Additions ([2]; Ethanol, *solids that precipitated under ambient conditions): Form A*
Observations after storage in the fridge for ca. 48 hours ([2]; Ethyl Acetate (dry)): White solid
XRPD analysis after re- dissolution and storage at 4° C. for ca. 48 hours ([2]; Ethyl Acetate (dry)): Amorphous
Crystallization technique: Anti-solvent Additions ([2]; Ethyl Acetate (dry), *solids that precipitated under ambient conditions): Form A*
Crystallization technique: Anti-solvent Additions ([2]; Methanol): Clear solution
Observations after storage in the fridge for ca. 48 hours ([2]; Methanol): Clear solution
Crystallization technique: Anti-solvent Additions ([2]; Methylethyl Ketone): Form A
Crystallization technique: Anti-solvent Additions ([2]; Methylisobutyl Ketone): Form B
Crystallization technique: Anti-solvent Additions ([2]; Tetrahydrofuran): Form A
Crystallization technique: Anti-solvent Additions ([2]; Toluene): Amorphous
Crystallization technique: Anti-solvent Additions ([2]; n-Heptane): Clear solution
solubility ([3]; ethyl acetate, EtOAc): ~14500 µg/mL (≈ 24.1 mM)
solubility ([3]; isopropanol, IPA): ~5600 µg/mL (≈ 9.29 mM)
solubility ([3]; MTBE): ~1200 µg/mL (≈ 1.99 mM)
solubility ([3]; Toluene): ~13600 µg/mL (≈ 22.6 mM)
Crystallization technique: Cooling ([4]; 1-Butanol): Form A
Crystallization technique: Cooling ([4]; 2-Methyl Tetrahydrofuran): Clear solution
Crystallization technique: Cooling ([4]; 2-Propanol): Form A
Crystallization technique: Cooling ([4]; 40% Ethanol / 60% Water (% v/v) calc. aw = 0.7): Amorphous
Crystallization technique: Cooling ([4]; 50% 2-Propanol / 50% Heptane (% v/v), WC = weakly crystalline): Form A (WC)
Crystallization technique: Cooling ([4]; 50% Acetonitrile / 50% Water (% v/v) calc. aw = 0.9): Clear solution
Crystallization technique: Cooling ([4]; 50% Ethanol / 50% Heptane (% v/v)): Form A
Crystallization technique: Cooling [4, 6]: Clear solution
Crystallization technique: Cooling [4, 7]: Clear solution
Crystallization technique: Cooling [4, 8]: Form A
Crystallization technique: Cooling [4, 9]: Clear solution
Crystallization technique: Cooling [4, 10]: Clear solution
Crystallization technique: Cooling ([4]; Acetone): Form A
Crystallization technique: Cooling ([4]; Acetonitrile): Clear solution
Crystallization technique: Cooling ([4]; Ethanol): Amorphous
Crystallization technique: Cooling ([4]; Ethyl Acetate (dry)): Amorphous
Crystallization technique: Cooling ([4]; Methanol): Clear solution
Crystallization technique: Cooling ([4]; Methylethyl Ketone): Clear solution
Crystallization technique: Cooling ([4]; Methylisobutyl Ketone): Clear solution
Crystallization technique: Cooling ([4]; Tetrahydrofuran): Clear solution
Crystallization technique: Cooling ([4]; Toluene): Amorphous
Crystallization technique: Cooling ([4]; n-Heptane): Clear solution
Crystallization technique: Cooling ([4]; tert-Butylmethyl Ether): Clear solution
